We go through two compounds from article PMC9144902, “Metal(II) Complexes of the Fluoroquinolone Fleroxacin: Synthesis, Characterization and Biological Profile” (Pharmaceutics, 2022).

Test [1] relates to Bacillus subtilis ATCC 6633. Nature of the test: Antimicrobial activity, MIC determination. In kind it is cell-based. The method, then: (§1) The in vitro antimicrobial activity of the compounds was evaluated by determining the minimum inhibitory concentration (MIC) against the Gram-positive microorganisms Staphylococcus aureus ATCC 6538 (S. aureus) and Bacillus subtilis ATCC 6633 (B. subtilis) and the Gram-negative microorganism Xanthomonas campestris ATCC 1395 (X. campestris). The affinity of the compounds for bovine serum albumin (BSA) and human serum albumin (HSA) was studied by fluorescence emission spectroscopy, and the corresponding binding constants were determined. Furthermore, the interaction of the compounds with calf-thymus DNA (CT DNA) was investigated to determine the possible mode of interaction by the following methods: (i) UV–vis spectroscopy (where the DNA-binding constants of the complexes (Kb) were also determined), (ii) DNA-viscosity measurements, (iii) cyclic voltammetry and (iv) competitive DNA-binding studies with the classic intercalator ethidium bromide (EB) performed by fluorescence emission spectroscopy.
(§2) Three bacterial strains, one Gram(−) (X. campestris) and two Gram(+) (S. aureus and B. subtilis), were used in order to test the antimicrobial activity of the compounds.
(§3) The antimicrobial activity of the compounds was evaluated b y determining their respective MIC values towards one Gram–( –) (Xanthomonas campestris ATCC 1395 (X. campestris)) and two Gram–(+) (Staphylococcus aureus ATCC 6538 (S. aureus) and Bacillus subtilis ATCC 6633 (B. subtilis)) bacterial species. Cultures of these microbial strains were grown on a rich selective agar medium and stored at 4°C. The selective media used were Nutrient Agar or Broth for B. subtilis and S. aureus, and Yeast Mold Agar or Broth for X. campestris . Cells picked from the surface of the stored cultures were used to initiate liquid pre–cultures of the same selective medium at an initial turbidity of roughl y 1 McFarland unit. Pre–cultures were incubated for 24 h in a rotar y sh aking incubator and subsequently the y were used to inoculate the test cultures used for the determination of MIC at an initial turbidity of 0.5 McFarland units. The test cultures consisted of Mueller–Hinton broth (Deben Diagnostics Ltd) containing different concentrations of the compounds. Different concentrations were achieved as follows: the compounds were freshly dissolved in DMSO to a concentration of 1 mg/mL and they were diluted with DMSO, using the method of progressive double dilution. Therefore, working solutions with decreasing concentrations of the compounds under investigation were achieved. The working solutions were subsequently diluted to the final desired concentration b y addition to the growth medium at a proportion of 2:98. MIC values were determined as the lowest concentrations of the tested compounds that inhibited visible growth of each respective organism after a 24–h incubation [ S1]. Bacterial growth was determined b y measuring the turbidit y of appropriatel y diluted cultures at 600 nm with reference to equall y diluted sterile growth medium and the inhibition achieved was calculated b y comparing the turbidit y of each culture to the average of the turbidit y of three non–inhibited cultures. All test cultures were grown in triplicates and for the determination of MIC, growth had to be inhibited in at least two cultures of the triplicate. In cubation temperatur e at all stages was 37°C ex cept for X. campestris t h at was cultivated at 28°C [S2]. […]
(§4) The fluorescence spectra of the compounds were recorded under the same experimental conditions and presented a low–intensity emission band in the region 405–410 nm .

Test [2] has as its system Staphylococcus aureus ATCC 6538. The test is described as follows: Antimicrobial activity, MIC determination. The class given is cell-based. The method, then:
as §1, §2, §3, §4

Test [3] has as its system Xanthomonas campestris ATCC 1395. Nature of the test: Antimicrobial activity, MIC determination. The class given is cell-based. The method, then: as §1, §2, §3, §4
The target in test [4] is T1, bovine serum albumin (BSA) (Bos taurus, UniProt P02769).
T1 construct: purchased
T1 sequence (P02769 25-607): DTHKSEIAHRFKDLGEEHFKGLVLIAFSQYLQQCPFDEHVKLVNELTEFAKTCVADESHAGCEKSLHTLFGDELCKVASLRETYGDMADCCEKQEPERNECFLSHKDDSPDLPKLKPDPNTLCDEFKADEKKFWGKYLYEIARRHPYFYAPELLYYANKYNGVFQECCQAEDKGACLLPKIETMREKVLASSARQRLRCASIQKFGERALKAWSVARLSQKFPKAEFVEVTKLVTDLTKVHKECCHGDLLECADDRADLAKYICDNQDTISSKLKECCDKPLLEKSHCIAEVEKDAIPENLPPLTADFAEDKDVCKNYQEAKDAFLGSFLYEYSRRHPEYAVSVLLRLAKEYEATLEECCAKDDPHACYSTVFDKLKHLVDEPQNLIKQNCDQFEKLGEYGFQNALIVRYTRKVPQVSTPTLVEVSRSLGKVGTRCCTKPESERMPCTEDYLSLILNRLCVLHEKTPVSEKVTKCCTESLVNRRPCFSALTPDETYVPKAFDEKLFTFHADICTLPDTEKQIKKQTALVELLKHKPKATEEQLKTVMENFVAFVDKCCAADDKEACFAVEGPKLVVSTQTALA
Nature of the test: Albumin binding by tryptophan fluorescence emission quenching. Particulars: for kq(BSA), BSA-quenching constant: buffer pH 7.0, λexc 295 nm, Stern–Volmer, τ0 = 10^–8 s; for BSA fluorescence, % of the initial fluorescence intensity (I/Io): λem,max = 342 nm, final value of titration (Figure S11). As to the method:
(§5) Serum albumins (Sas) are the most abundant serum proteins and play a role in the circulatory system, primarily in the transport of drugs and other bioactive small molecules through the bloodstream.
(§6) The SA-quenching constants (kq) for the compounds (Table 5) were calculated with the Stern–Volmer quenching equation (Equations (S2) and (S3)).
(§7) Albumin-binding constants (K) were calculated using the Scatchard equation (Equation (S4)). […]
(§8) S2. Interaction with serum albumins
(§9) The albumin–binding study for the compounds was carried out b y fluorescence emission

Test [5] addresses T2, human serum albumin (HSA) (Homo sapiens, UniProt P02768).
T2 construct: purchased
Described as above. Particulars: for kq(HSA), HSA-quenching constant: buffer pH 7.0, λexc 295 nm, Stern–Volmer, τ0 = 10^–8 s; for HSA fluorescence, % of the initial fluorescence intensity (I/Io): λem,max = 351 nm, final value of titration (Figure S10). As to the method: as §5, §6, §7, §8, §9

The test system of test [6] is EB–DNA adduct (CT DNA). Nature of the test: Competitive study with EB (EB–DNA fluorescence quenching). In kind it is binding, calf. Particulars: for Ksv, Stern–Volmer constant: EB–DNA adduct; for ΔI/Io, percentage of EB–DNA fluorescence quenching: [EB] = 20 μM, [DNA] = 26 μM, λexc 540 nm, λem 592 nm; for EB–DNA relative fluorescence emission intensity, % of the initial (I/Io): λemission = 592 nm, final value (up to), Figure S14; for kq, EB–DNA quenching constant: τo = 23 ns. The method, then:
Ethidium bromide is a typical marker of intercalation because it can intercalate between adjacent DNA bases with its planar phenanthridine ring.
The fluorescence emission spectra of the EB–DNA adduct ([EB] = 20 μM, [DNA] = 26 μM) in the absence and presence of the compounds were recorded at increasing amounts of the respective compounds. […] As a conclusion, an intercalative interaction of the complexes with CT DNA can be proposed.
The values of the Stern–Volmer constants (Ksv) for the compounds were calculated using the linear Stern–Volmer equation (Equation (S2)) and were of the order of 10^5 M^−1 (Table 8), indicating tight binding of the complexes with DNA [61]. The Ksv values for the complexes are in the range found for a number of metal(II)–quinolone complexes, and complex 12 presents the highest Ksv value (Ksv = 7.25(±0.30) × 10^5 M^−1) among the compounds studied. In addition, the EB–DNA quenching constants (kq) for the compounds were calculated with Equation (S3), assuming τo = 23 ns as the fluorescence lifetime. The values of kq (Table 8) are much higher than the value of 10^10 M^−1s^−1, indicating a static mechanism of EB–DNA fluorescence quenching induced by the compounds, which can result from the formation of a new adduct apparently consisting of each complex and DNA [61].
In order to determine and confirm the DNA–binding mode of the compounds, a competitive study with EB as an intercalating marker is performed b y fluorescence emission spectroscopy.
Therefo re, the E B–displacing abilit y of the compounds from its EB –DN A conjugate was ex amined.
The DNA–EB adduct was prepared b y addition of 20 μM EB and 26 μM CT DNA in buffer solution (150 mM NaCl and 15 mM trisodium citrate at pH 7.0). The potential intercalation of the compounds between the DNA–bases was studied by the addition of a certain amount of the compound solution into the EB–DNA adduct solution. The influence of the compounds on the EB – DNA solution was monitored through the changes of the fluorescence emission spectra at excitation […]
wavelen gth (λex ) at 540 nm [S3]. […]
room temperature in solution or in the presence of DNA, under the same experimental conditions (λex = 540 nm). Bearing t hat in mind, the observed quenching of the EB–DNA solution is evidentl y associated to the displacement of EB from its EB–DNA adduct.
The quenching effici ency (KSV) for each compound was assessed according to the Stern – Volmer equation: Io =1+ k τ [Q] = 1+ K [Q], (eq. S2) [S3] where I0 and I = the fluorescence […]
emission intensities of EB–DNA in the absence and presence of the quencher, respectivel y, [Q] = the concentration of the quencher (i.e. compounds). KSV is obtained from t he Stern–Volmer plots b y the slope of the diagram I0/ I versus [Q]. Taking τ0 = 23 ns as the fluorescence lifetime of the EB– DNA s ystem [S5], the EB –DNA quenching constants (k q) of the compounds can be determined accordin g to eq.S3: K SV = kqτo . […]
[S2] Irgi, E.P.; Geromichalos, G.D.; Balala, S.; Kljun, J.; Kalogiannis, S.; Papadopoulos, A.; Turel, I.; Psomas, G. Cobalt(II) complexes with quinolone antimicrobial drug oxolinic acid: […]
[ S 5] Heller, D.P.; Greenstock, C.L. Fluorescence lifetime analysis of DNA intercalated ethidium bromide and quenching by free d ye. Biophys. Chem . 1994, 50, 305–312.

Setting [7] is: B. subtilis, 24-h incubation, 37°C.
Setting [8] is: S. aureus, 24-h incubation, 37°C.
The mark [9] stands for this setting: X. campestris, 24-h incubation, 28°C.

Where two headings read alike, the source gives them in different places.

T2 sequence (P02768 25-609): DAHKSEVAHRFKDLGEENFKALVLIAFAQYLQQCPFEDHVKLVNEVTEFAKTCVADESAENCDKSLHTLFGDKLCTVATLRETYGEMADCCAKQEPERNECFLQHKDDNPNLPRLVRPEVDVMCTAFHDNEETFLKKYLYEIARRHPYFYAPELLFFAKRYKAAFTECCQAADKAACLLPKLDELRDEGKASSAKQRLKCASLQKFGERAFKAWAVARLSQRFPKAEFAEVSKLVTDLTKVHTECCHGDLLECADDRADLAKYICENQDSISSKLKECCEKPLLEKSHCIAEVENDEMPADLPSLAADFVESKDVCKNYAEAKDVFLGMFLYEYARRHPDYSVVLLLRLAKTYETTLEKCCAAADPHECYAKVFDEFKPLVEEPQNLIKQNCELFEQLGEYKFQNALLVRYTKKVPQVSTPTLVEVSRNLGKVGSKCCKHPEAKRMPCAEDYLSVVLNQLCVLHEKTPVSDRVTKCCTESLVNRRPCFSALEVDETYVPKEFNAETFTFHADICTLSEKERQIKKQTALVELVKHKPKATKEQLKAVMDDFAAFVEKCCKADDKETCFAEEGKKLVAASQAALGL

The MIC is the lowest concentration found to suppress growth. A word on the Kd: it is the equilibrium constant for the complex coming apart. In the case of `CN1CCN(c2c(F)cc3c(=O)c(C(=O)O)cn(CCF)c3c2F)CC1` [Fleroxacin, 6,8-difluoro-1-(2–fluoroethyl)-7-(4-methylpiperazin-1-yl)-4-oxoquinoline-3-carboxylic acid], the MIC in test [1] (Bacillus subtilis, ATCC6633, 24 h) stood at 4 mg/L; in test [1] (Bacillus subtilis, ATCC6633, 24 h, read-out: MIC (values in parentheses)), 10.8 µM; in test [2] (Staphylococcus aureus, ATCC6538, 24 h) it was 4 mg/L; in test [2] (Staphylococcus aureus, ATCC6538, 24 h, read-out: MIC (values in parentheses)), 10.8 µM; in test [3] (Xanthomonas campestris, ATCC1395, 24 h), 8 mg/L; in test [3] (Xanthomonas campestris, ATCC1395, 24 h, read-out: MIC (values in parentheses)), 21.7 µM. The values for the Kd in test [4] and in test [5] were 30.5 µM and 15.2 µM, respectively. The “kq(BSA), BSA-quenching constant” value in test [4] (BSA 3 μM) was 6.19(±0.23) × 10^12 M^−1s^−1. The “BSA fluorescence, % of the initial fluorescence intensity (I/Io)” value in test [4] is reported as 47.5%. Moreover, the “kq(HSA), HSA-quenching constant” value in test [5] (HSA 3 μM) is listed as 2.69(±0.11) × 10^12 M^−1s^−1. In test [5], the “HSA fluorescence, % of the initial fluorescence intensity (I/Io)” value is reported as 66.5%. Also, in test [6], the “Ksv, Stern–Volmer constant” value was 4.64(±0.14) × 10^5 M^–1. In addition, the “ΔI/Io, percentage of EB–DNA fluorescence quenching” value in test [6] turned out to be 65.8%. Moreover, the “EB–DNA relative fluorescence emission intensity, % of the initial (I/Io)” value in test [6] was 34.2%. Also, the “kq, EB–DNA quenching constant” value in test [6] was 2.02(±0.06) × 10^13 M^−1s^−1.
Consider `CN1CCN(c2c(F)cc3c(=O)c(C(=O)[O-])cn(CCF)c3c2F)CC1.CN1CCN(c2c(F)cc3c(=O)c(C(=O)[O-])cn(CCF)c3c2F)CC1.[Zn+2].c1ccc(-c2ccccn2)nc1` [complex 12, [Zn(flrx)2(bipy)]], for which, in test [1] (setting [7]), the MIC came to 8 mg/L and the “MIC (values in parentheses)” value is 8.3 µM. In addition, in test [2] (setting [8]), the MIC worked out at 8 mg/L and the “MIC (values in parentheses)” value was 8.3 µM. In test [3] (setting [9]), the MIC was 16 mg/L and the “MIC (values in parentheses)” value is 16.7 µM. The “K(BSA), BSA-binding constant” value in test [4] (BSA 3 μM, buffer pH 7.0, Scatchard equation) was 7.89(±0.33) × 10^4 M^−1. In addition, the “kq(BSA), BSA-quenching constant” value in test [4] (BSA 3 μM) is 1.74(±0.08) × 10^13 M^−1s^−1. Also, the “BSA fluorescence, % of the initial fluorescence intensity (I/Io)” value in test [4] is given as 14.1%. The “K(HSA), HSA-binding constant” value in test [5] (HSA 3 μM, buffer pH 7.0, Scatchard equation) was 1.04(±0.06) × 10^5 M^−1. Further, the “kq(HSA), HSA-quenching constant” value in test [5] (HSA 3 μM) is 1.24(±0.04) × 10^13 M^−1s^−1. Besides, the “HSA fluorescence, % of the initial fluorescence intensity (I/Io)” value in test [5] is recorded as 25.9%. Besides, in test [6], the “Ksv, Stern–Volmer constant” value is on record as 7.25(±0.30) × 10^5 M^–1; the “ΔI/Io, percentage of EB–DNA fluorescence quenching” value was 88.6%; the “EB–DNA relative fluorescence emission intensity, % of the initial (I/Io)” value was found to be 11.4%; the “kq, EB–DNA quenching constant” value is 3.15(±0.13) × 10^13 M^−1s^−1.
